Format in all cases: in vivo, mouse
Settings in all cases: aged C57BL/6 mice, 25 mg/kg p.o. each substance, 90 days

For one test, the system named is mTOR. The test is described as follows: mTOR ELISA in lung tissue homogenate of aged mice. How it is done: The experiments were performed in old C57b1/6 mice (28-30 weeks). Table 1 discloses the groups of mice used for the experimentation. C57BL/6 mice were bred and naturally aged in a pathogen-free colony. Mice were group-housed six per cage for the treatment regimen and maintained on a 12-hr light-dark schedule with ad libitum access to food and water. All experiments were designed according to the principles of animal use for gerontological research (Miller, R. A., & Nadon, N. L. (2000). Principles of animal use for gerontological research. Journals of Gerontology. Series A, Biological Sciences and Medical Sciences, 55, B117-B123) [table] The above test substances were administered to the mice for a period of 90 days. Rapamycin was used as a positive control. After 90 days of administration experiments were performed to assess the respiratory muscle function, anatomical changes, cellular senescence and immunological changes. Activation of AMPK delays senescence. Abnormal autophagy and aging promote each other, and AMPK is an important regulator of this process. AMPK is involved in the transduction of several aging-related signaling pathways. AMPK intervenes in the development of many age-related diseases. […] These events contribute to the pathogenesis of age-related disorders.
Background: In an ELISA, binding on a coated surface is turned into a signal by an enzyme label.

Another test concerns AMPK. Description: AMPK ELISA in lung tissue homogenate of aged mice. As to the method:
The experiments were performed in old C57b1/6 mice (28-30 weeks). Table 1 discloses the groups of mice used for the experimentation. C57BL/6 mice were bred and naturally aged in a pathogen-free colony. Mice were group-housed six per cage for the treatment regimen and maintained on a 12-hr light-dark schedule with ad libitum access to food and water. All experiments were designed according to the principles of animal use for gerontological research (Miller, R. A., & Nadon, N. L. (2000). Principles of animal use for gerontological research. Journals of Gerontology. Series A, Biological Sciences and Medical Sciences, 55, B117-B123)
The above test substances were administered to the mice for a period of 90 days. Rapamycin was used as a positive control. After 90 days of administration experiments were performed to assess the respiratory muscle function, anatomical changes, cellular senescence and immunological changes.
Activation of AMPK delays senescence. Abnormal autophagy and aging promote each other, and AMPK is an important regulator of this process. AMPK is involved in the transduction of several aging-related signaling pathways. AMPK intervenes in the development of many age-related diseases.

Test [1] has as its system old C57b1/6 mice. The test is described as follows: Tidal volume by whole-body plethysmography in aged mice. How it is done:
The experiments were performed in old C57b1/6 mice (28-30 weeks). Table 1 discloses the groups of mice used for the experimentation. C57BL/6 mice were bred and naturally aged in a pathogen-free colony. Mice were group-housed six per cage for the treatment regimen and maintained on a 12-hr light-dark schedule with ad libitum access to food and water. All experiments were designed according to the principles of animal use for gerontological research (Miller, R. A., & Nadon, N. L. (2000). Principles of animal use for gerontological research. Journals of Gerontology. Series A, Biological Sciences and Medical Sciences, 55, B117-B123) [table] The above test substances were administered to the mice for a period of 90 days. Rapamycin was used as a positive control. […] The respiratory muscle function in the study animals was assessed by estimating the Tidal Volume, Minute ventilation, Transdiaphragmatic pressure ([…]) and Respiratory rate. […] In the present study, ventilatory parameters were measured in awake mice during eupnoea (spontaneous breathing of room air) using a whole-body plethysmography system. […] Recordings were taken after 10 min of acclimatization and recorded for one hour. Recorded parameters included tidal volume and minute ventilation

Test [2] deals with old C57b1/6 mice. The test is described as follows: Minute ventilation by whole-body plethysmography in aged mice. As to the method: The experiments were performed in old C57b1/6 mice (28-30 weeks). Table 1 discloses the groups of mice used for the experimentation. C57BL/6 mice were bred and naturally aged in a pathogen-free colony. Mice were group-housed six per cage for the treatment regimen and maintained on a 12-hr light-dark schedule with ad libitum access to food and water. All experiments were designed according to the principles of animal use for gerontological research (Miller, R. A., & Nadon, N. L. (2000). Principles of animal use for gerontological research. Journals of Gerontology. Series A, Biological Sciences and Medical Sciences, 55, B117-B123) [table] The above test substances were administered to the mice for a period of 90 days. […] The respiratory muscle function in the study animals was assessed by estimating the Tidal Volume, Minute ventilation, Transdiaphragmatic pressure ([…]) and Respiratory rate. […] In the present study, ventilatory parameters were measured in awake mice during eupnoea (spontaneous breathing of room air) using a whole-body plethysmography system. […] Recordings were taken after 10 min of acclimatization and recorded for one hour. Recorded parameters included tidal volume and minute ventilation Minute ventilation-Minute ventilation is the amount of air inhaled or exhaled from a person's lungs in one minute is an important measurement that's related to tidal volume. […]

Where [3] appears, read: Rapamycin 8 mg/kg p.o. positive control.

Take `O=C(/C=C/c1ccc(O)c(O)c1)O[C@H](Cc1ccc(O)c(O)c1)C(=O)O` [Rosmarinic acid]: in the test on mTOR, the “expression of mTOR” value was “decreased”. For the same compound, in the test with AMPK, the AMPK levels result is listed as “increased”. In addition, in the test on old C57b1/6 mice [1] (versus old mice control), the tidal volume result is “increased”. Moreover, in the test with old C57b1/6 mice [1] (setting [3]), the “tidal volume, comparison between treatment groups” value is “better than control, and Rapamycin”. For the same compound, in the test on old C57b1/6 mice [2] (versus old mice control), the minute ventilation entry is reported as “increase”. For the same compound, in the test on old C57b1/6 mice [2] (setting [3]), the “minute ventilation, comparison between treatment groups” value is “better improvement than control, and Rapamycin”.

These data come from US20250090614A1, “COMPOSITIONS AND METHODS FOR IMPROVING LUNG FUNCTION” (priority 2023, published 2025).
